Results published in US4714701A, “Antiviral compounds” (Burroughs Wellcome Co., priority 1985, dated 1987).
Read-outs that look alike come from different tables or passages of the source.

How the values were obtained:
herpes simplex [1] = conditions: prior art compound; cited from earlier work
herpes simplex virus = assay: Anti-HSV activity, plaque reduction assay; format: cell-based
Procedure: The inhibiting effect of the compounds of Example 1 and 2 against herpes simplex virus were determined by the plaque reduction assay.

EBV [2] = assay: Anti-EBV activity (method described by Nonogama l. Pagano, 1971); format: cell-based, Epstein-Barr virus; conditions: human gammaherpesvirus 4
Procedure: The inhibitory effect of the compound of Example 2 against EBV was determined by the method described by Nonogama l. Pagano, 1971, Nature: New Biology, Vol. 233, 103-104.

dogs = assay: Toxicity in dogs, intravenous route; format: in vivo, dog; conditions: 60 mg/kg/day
Procedure: The toxicity of the compound of Example 2 was determined by administering the compound to dogs at a dosage of 60 mg/kg/day, by the intravenous route.

CMV = assay: Activity against CMV infections (general statement); set-up: species or system cytomegalovirus
EBV [3] = assay: Activity against EBV infections (general statement); set-up: species or system Epstein-Barr virus
herpes simplex [4] = assay: Activity against herpes simplex (general statement); set-up: species or system herpes simplex virus

Structure (SMILES) | activity against herpes simplex (herpes simplex [1]) | IC50 (herpes simplex virus) [µM] | IC50 (EBV [2]) [µM] | toxic effects (dogs) | activity against CMV infections (CMV) | activity against EBV infections (EBV [3]) | activity against herpes simplex (herpes simplex [4])
Nc1nc2c(ncn2COCCO)c(=O)[nH]1 [acyclovir, 9-(2-hydroxyethoxymethyl)guanine] | particularly good activity |  |  |  |  |  | 
Nc1nc2c(nnn2COC(CO)CO)c(=O)[nH]1 [Example 2, 5-Amino-3,6-dihydro-3-[(2-hydroxy-1-hydroxymethylethoxy)methyl]-7H-1,2,3-triazolo[4,5-d]pyrimidin-7-one] |  | 27.4 | 1 to 10 | No toxic effects were noted | especially potent activity | especially potent activity | 
Nc1nc2c(nc(N)n2COC(CO)CO)c(=O)[nH]1 [Example 1, 8-Amino-9-[(2-hydroxy-1-hydroxymethylethoxy)methyl]guanine] |  | 0.5 |  |  |  |  | particularly high activity
